# According to PubChem BioAssay (NCI):
#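 In this assay, cells in 96-well plates receive the compound at five concentrations for 48 hours. Endpoints are linearly interpolated between the surrounding concentrations. At the GI50, growth is halved. Definition used: TGI = concentration required for complete inhibition of growth.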
# Assays:
# Assay in all cases: DTP human tumour cell line panel, 48 h
# NCI/ADR-RES ovarian = test system: NCI/ADR-RES ovarian
# HT29 colon = test system: HT29 colon
# MALME-3M melanoma = test system: MALME-3M melanoma
# COLO 205 colon = test system: COLO 205 colon
# DU-145 prostate = test system: DU-145 prostate
# A498 renal = test system: A498 renal
# T-47D breast = test system: T-47D breast
# PC-3 prostate = test system: PC-3 prostate
# RXF 393 renal = test system: RXF 393 renal
# RPMI-8226 leukemia = test system: RPMI-8226 leukemia
structure (smiles),measurement,setting,value
CC(=O)Nc1ccc(C(=O)N[C@@H]2C(=O)N3[C@@H]2SC(C)(C)[C@@H]3C(=O)O)cn1,TGI,NCI/ADR-RES ovarian,> 100 µM
same,TGI,HT29 colon,> 100 µM
same,TGI,MALME-3M melanoma,> 100 µM
same,TGI,COLO 205 colon,> 100 µM
same,TGI,DU-145 prostate,> 100 µM
same,TGI,A498 renal,> 100 µM
same,TGI,T-47D breast,> 100 µM
same,TGI,PC-3 prostate,> 100 µM
same,TGI,RXF 393 renal,> 100 µM
same,TGI,RPMI-8226 leukemia,> 100 µM
CC(O)CN(CCN(CC(C)O)CC(C)O)CC(C)O.O=[N+]([O-])O.[Cu+2] (stereo not drawn),GI50,NCI/ADR-RES ovarian,> 100 µM
same,TGI,NCI/ADR-RES ovarian,> 100 µM
same,GI50,HT29 colon,> 100 µM
same,TGI,HT29 colon,> 100 µM
same,GI50,MALME-3M melanoma,> 100 µM
same,TGI,MALME-3M melanoma,> 100 µM
same,GI50,COLO 205 colon,> 100 µM
same,TGI,COLO 205 colon,> 100 µM
same,GI50,DU-145 prostate,> 100 µM
same,TGI,DU-145 prostate,> 100 µM
same,GI50,A498 renal,30.9 µM
same,TGI,A498 renal,63.3 µM
same,GI50,T-47D breast,> 100 µM
same,TGI,T-47D breast,> 100 µM
same,GI50,PC-3 prostate,> 100 µM
same,TGI,PC-3 prostate,> 100 µM
same,GI50,RXF 393 renal,> 100 µM
same,TGI,RXF 393 renal,> 100 µM
same,GI50,RPMI-8226 leukemia,> 100 µM
same,TGI,RPMI-8226 leukemia,> 100 µM
COc1ccc(C2CC(c3cc(OC)c(OC)c(OC)c3)=NN2)cc1 (stereo not drawn),GI50,NCI/ADR-RES ovarian,6.67 µM
same,TGI,NCI/ADR-RES ovarian,94.8 µM
same,GI50,HT29 colon,3.91 µM
same,TGI,HT29 colon,> 100 µM
same,GI50,MALME-3M melanoma,24.7 µM
same,TGI,MALME-3M melanoma,> 100 µM
same,GI50,COLO 205 colon,4 µM
same,TGI,COLO 205 colon,31 µM
same,GI50,DU-145 prostate,33.9 µM
same,TGI,DU-145 prostate,> 100 µM
same,GI50,A498 renal,5.99 µM
same,TGI,A498 renal,47.6 µM
same,GI50,T-47D breast,3.61 µM
same,TGI,T-47D breast,> 100 µM
same,GI50,PC-3 prostate,6.03 µM
same,TGI,PC-3 prostate,> 100 µM
same,GI50,RXF 393 renal,9.71 µM
same,TGI,RXF 393 renal,92 µM
same,GI50,RPMI-8226 leukemia,3.23 µM
same,TGI,RPMI-8226 leukemia,18.6 µM
Nc1nc(Cl)nc2c1ncn2C1O[C@H](CO)[C@@H](O)[C@@H]1F (stereo partly drawn),GI50,NCI/ADR-RES ovarian,0.0498 µM
same,TGI,NCI/ADR-RES ovarian,> 100 µM
same,TGI,HT29 colon,> 100 µM
same,GI50,MALME-3M melanoma,43.4 µM
same,TGI,MALME-3M melanoma,> 100 µM
same,GI50,COLO 205 colon,0.523 µM
same,TGI,COLO 205 colon,> 100 µM
same,GI50,DU-145 prostate,0.332 µM
same,TGI,DU-145 prostate,> 32.4 µM
same,GI50,A498 renal,0.682 µM
same,TGI,A498 renal,14.3 µM
same,GI50,T-47D breast,6.94 µM
same,TGI,T-47D breast,> 100 µM
same,GI50,PC-3 prostate,> 24.6 µM
same,TGI,PC-3 prostate,> 100 µM
same,GI50,RXF 393 renal,1.48 µM
same,TGI,RXF 393 renal,35.3 µM
same,GI50,RPMI-8226 leukemia,> 31.5 µM
same,TGI,RPMI-8226 leukemia,> 100 µM
Cn1cccc1-c1cc(-c2ccc(Br)cc2)nc(N)c1C#N,GI50,NCI/ADR-RES ovarian,> 100 µM
same,TGI,NCI/ADR-RES ovarian,> 100 µM
same,GI50,HT29 colon,> 100 µM
same,TGI,HT29 colon,> 100 µM
same,GI50,MALME-3M melanoma,> 100 µM
same,TGI,MALME-3M melanoma,> 100 µM
same,GI50,COLO 205 colon,> 100 µM
same,TGI,COLO 205 colon,> 100 µM
same,GI50,DU-145 prostate,> 100 µM
same,TGI,DU-145 prostate,> 100 µM
same,GI50,A498 renal,91.8 µM
same,TGI,A498 renal,> 100 µM
same,GI50,T-47D breast,> 100 µM
same,TGI,T-47D breast,> 100 µM
same,GI50,PC-3 prostate,> 100 µM
same,TGI,PC-3 prostate,> 100 µM
same,GI50,RXF 393 renal,30.3 µM
same,TGI,RXF 393 renal,> 100 µM
same,GI50,RPMI-8226 leukemia,78.7 µM
same,TGI,RPMI-8226 leukemia,> 100 µM
O=Nc1c(-c2cccc([N+](=O)[O-])c2)nc2ncccn12,GI50,NCI/ADR-RES ovarian,15.9 µM
same,TGI,NCI/ADR-RES ovarian,71.7 µM
same,GI50,HT29 colon,9.84 µM
same,TGI,HT29 colon,44.1 µM
same,GI50,MALME-3M melanoma,14.5 µM
same,TGI,MALME-3M melanoma,29.1 µM
same,GI50,COLO 205 colon,6.25 µM
same,TGI,COLO 205 colon,19.9 µM
same,GI50,DU-145 prostate,4.24 µM
same,TGI,DU-145 prostate,16.8 µM
same,GI50,A498 renal,17.4 µM
same,TGI,A498 renal,38.3 µM
same,GI50,T-47D breast,6.29 µM
same,TGI,T-47D breast,39.1 µM
same,GI50,PC-3 prostate,13.7 µM
same,TGI,PC-3 prostate,36.3 µM
same,TGI,RXF 393 renal,3.01 µM
same,GI50,RPMI-8226 leukemia,1.47 µM
same,TGI,RPMI-8226 leukemia,6.56 µM
O=C1c2cccnc2-c2nc(-c3ccc([N+](=O)[O-])cc3)cc3c2c1nc1ccccc13,GI50,NCI/ADR-RES ovarian,2.44 µM
same,TGI,NCI/ADR-RES ovarian,10.3 µM
same,GI50,HT29 colon,11.9 µM
same,TGI,HT29 colon,26.3 µM
same,GI50,MALME-3M melanoma,2.15 µM
same,TGI,MALME-3M melanoma,6.32 µM
same,GI50,COLO 205 colon,5.54 µM
same,TGI,COLO 205 colon,11.9 µM
same,GI50,DU-145 prostate,2.21 µM
same,TGI,DU-145 prostate,4.88 µM
same,GI50,A498 renal,24.2 µM
same,TGI,A498 renal,65.5 µM
same,GI50,T-47D breast,10.6 µM
same,TGI,T-47D breast,54.9 µM
same,GI50,PC-3 prostate,3.95 µM
same,TGI,PC-3 prostate,> 100 µM
same,GI50,RXF 393 renal,9.37 µM
same,TGI,RXF 393 renal,37.7 µM
same,GI50,RPMI-8226 leukemia,8.88 µM
same,TGI,RPMI-8226 leukemia,71.5 µM
